Legend:
[1] = Test 1: Oxidation of 2,2,6,6-tetramethylpiperidine (TEMP); conditions: phosphate buffer pH 7.4, 50 mM TEMP, porphyrin 0.5 μM, oxygen saturated, daylight, 1 hour, EPR
Procedure: (§1) The oxidizing agent used during this test is dissolved oxygen.
A solution comprising a phosphate buffer (pH 7.4), 50 mM of the compound 2,2,6,6-tetramethylpiperidine (TEMP) and a porphyrin compound at 0.5 μM is prepared. The solution is saturated with oxygen. The solution is subjected to daylight.
After 1 hour, electron paramagnetic resonance spectrometry (EPR) is performed on the oxidized form of the compound 2,2,6,6-tetramethylpiperidine (TEMP), which corresponds to the compound (2,2,6,6-tetramethylpiperidin-1-yl)oxyl, known as TEMPO.
With a porphyrin compound according to the invention, the appearance of the compound TEMPO is observed after bringing into contact for 1 hour.

[2] = Blind sniff test of incubated flasks of human sweat by a panel of 8 testers; conditions: 1 mg of porphyrin compound in flask of sweat, same trial as Example 1
Procedure: 1) Human sweat is collected. During this collecting, the sweat is frozen.
2) The sweat is subsequently placed in a flask, so that there is an air phase above, once the flask is closed. 1 gram of sweat is placed in a 20 ml flask.
3) The porphyrin compound is placed in the flask in a proportion of 0.1 mg.
4) The flask is closed and incubated at 37° C. A test is then carried out which consists in sniffing the flask at t=4 hours and at t=16 hours.
The test is carried out blind and in comparison with a flask of sweat not comprising additive, a flask of sweat comprising a porphyrin compound not included in the present invention, such as cupric chlorophyllin, and a flask of sweat comprising 0.1 mg of triclosan.
The test is carried out by a panel composed of 8 testers who record their impression in terms of odorous intensity and of quality (ranging from neutral up to repulsive) and the mean of the impressions is produced.
1 mg of each of the porphyrin compounds is introduced into flasks comprising sweat collected in the same way as in Example 1.

[3] = Test 3: Activation of Hydrogen Peroxide; conditions: 1 mM porphyrin in 10-volume hydrogen peroxide, spontaneous pH, daylight
Procedure: 1 mM of a porphyrin compound is placed in 10-volume hydrogen peroxide, spontaneous pH.
The solution is subjected to daylight.
The content of hydrogen peroxide is then assayed. The porphyrin compound is regarded as within the invention if it reduces the amount of hydrogen peroxide by factor of at least 2 (5 volumes or less).

[4] = Test 2: Oxidation of DMPO; conditions: aqueous solution pH=7, 100 mM DMPO, porphyrin 100 μM, oxygen saturated, daylight, 1 hour, EPR
Procedure: as §1
An aqueous solution, pH=7, comprising 100 mM of DMPO and a porphyrin compound at 100 μM, is prepared. The solution is saturated with oxygen. The solution is subjected to daylight.
After 1 hour, electron paramagnetic resonance spectrometry (EPR) is performed on the oxidized form of the compound 5,5-dimethyl-1-pyrroline N-oxide, known as DMPO-OH.
More specifically, the EPR spectrum is characterized by a hyperfine coupling constant of a^N=a^H=14.6 G.

| Compound | formation of the compound TEMPO (response to Test 1) [1] | effectiveness in the sweat flask odour trial [2] | reduction of the amount of hydrogen peroxide by factor of at least 2 (response to Test 3) [3] | formation of DMPO-OH (response to Test 2) [4] |
| --- | --- | --- | --- | --- |
| O=S(=O)(O)c1ccc(-c2c3nc(c(-c4ccc(S(=O)(=O)O)cc4)c4ccc([nH]4)c(-c4ccc(S(=O)(=O)O)cc4)c4nc(c(-c5ccc(S(=O)(=O)O)cc5)c5ccc2[nH]5)C=C4)C=C3)cc1 [anionic porphyrin compound] | responds positively | effective | responds positively | – |
| C[n+]1ccc(-c2c3nc(c(-c4cc[n+](C)cc4)c4ccc([nH]4)c(-c4cc[n+](C)cc4)c4nc(c(-c5cc[n+](C)cc5)c5ccc2[nH]5)C=C4)C=C3)cc1 [cationic porphyrin compound] | responds positively | effective | – | responds positively |
| copper chlorophyllin [reference compound] | does not result in the formation of the compound TEMPO | – | – | – |
